Tests used:
[1] = target: T1, Disintegrin and metalloproteinase domain-containing protein 17 (Homo sapiens, UniProt P78536); experiment: Inhibition of recombinant human TNF-alpha converting enzyme (TACE)
Interstitial collagenase = target: T2, Interstitial collagenase (Homo sapiens, UniProt P03956); experiment: Inhibition of recombinant human matrix metalloprotease-1
T2 sequence (P03956 whole entry): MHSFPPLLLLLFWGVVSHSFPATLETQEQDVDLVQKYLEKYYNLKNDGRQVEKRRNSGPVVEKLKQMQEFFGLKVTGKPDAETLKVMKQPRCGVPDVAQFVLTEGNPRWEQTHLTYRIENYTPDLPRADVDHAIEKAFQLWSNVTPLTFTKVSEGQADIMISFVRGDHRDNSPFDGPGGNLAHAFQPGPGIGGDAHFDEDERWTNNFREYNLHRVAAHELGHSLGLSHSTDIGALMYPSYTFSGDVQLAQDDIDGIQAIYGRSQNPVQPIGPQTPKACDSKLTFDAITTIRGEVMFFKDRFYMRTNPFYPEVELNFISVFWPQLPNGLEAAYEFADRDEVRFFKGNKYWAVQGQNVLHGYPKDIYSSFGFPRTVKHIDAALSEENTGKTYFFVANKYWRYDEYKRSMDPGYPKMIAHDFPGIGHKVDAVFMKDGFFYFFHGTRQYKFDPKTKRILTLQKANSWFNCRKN

Stromelysin-1 = Stromelysin-1 (Homo sapiens, UniProt P08254); experiment: Inhibition of recombinant human matrix metalloprotease-3
[2] = target: Matrix metalloproteinase-9 (Homo sapiens, UniProt P14780); experiment: Inhibition of recombinant human matrix metalloprotease-9
[3] = target: T1, Disintegrin and metalloproteinase domain-containing protein 17; experiment: Inhibition of recombinant human TNF-alpha converting enzyme

Chain of Matrix metalloproteinase-9 (P14780 whole entry, the tested form may be a part): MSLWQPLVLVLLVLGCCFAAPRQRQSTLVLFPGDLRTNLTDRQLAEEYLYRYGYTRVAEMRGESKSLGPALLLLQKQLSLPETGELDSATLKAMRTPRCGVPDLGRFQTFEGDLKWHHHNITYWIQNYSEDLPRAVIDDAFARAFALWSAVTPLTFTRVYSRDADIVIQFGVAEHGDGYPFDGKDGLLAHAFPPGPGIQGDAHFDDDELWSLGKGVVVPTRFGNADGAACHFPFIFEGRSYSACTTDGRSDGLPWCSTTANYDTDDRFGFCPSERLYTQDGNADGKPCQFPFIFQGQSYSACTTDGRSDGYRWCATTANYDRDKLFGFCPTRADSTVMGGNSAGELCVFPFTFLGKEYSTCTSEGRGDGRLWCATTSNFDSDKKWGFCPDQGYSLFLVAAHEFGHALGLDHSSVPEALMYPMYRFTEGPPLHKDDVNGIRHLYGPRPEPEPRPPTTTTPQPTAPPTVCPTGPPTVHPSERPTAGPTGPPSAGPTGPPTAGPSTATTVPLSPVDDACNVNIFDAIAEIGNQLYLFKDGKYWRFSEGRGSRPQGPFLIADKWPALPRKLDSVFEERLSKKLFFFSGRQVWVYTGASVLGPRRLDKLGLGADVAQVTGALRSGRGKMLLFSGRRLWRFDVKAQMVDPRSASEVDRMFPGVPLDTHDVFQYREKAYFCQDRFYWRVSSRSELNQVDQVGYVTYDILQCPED
T1 sequence (P78536 whole entry, the tested form may be a part): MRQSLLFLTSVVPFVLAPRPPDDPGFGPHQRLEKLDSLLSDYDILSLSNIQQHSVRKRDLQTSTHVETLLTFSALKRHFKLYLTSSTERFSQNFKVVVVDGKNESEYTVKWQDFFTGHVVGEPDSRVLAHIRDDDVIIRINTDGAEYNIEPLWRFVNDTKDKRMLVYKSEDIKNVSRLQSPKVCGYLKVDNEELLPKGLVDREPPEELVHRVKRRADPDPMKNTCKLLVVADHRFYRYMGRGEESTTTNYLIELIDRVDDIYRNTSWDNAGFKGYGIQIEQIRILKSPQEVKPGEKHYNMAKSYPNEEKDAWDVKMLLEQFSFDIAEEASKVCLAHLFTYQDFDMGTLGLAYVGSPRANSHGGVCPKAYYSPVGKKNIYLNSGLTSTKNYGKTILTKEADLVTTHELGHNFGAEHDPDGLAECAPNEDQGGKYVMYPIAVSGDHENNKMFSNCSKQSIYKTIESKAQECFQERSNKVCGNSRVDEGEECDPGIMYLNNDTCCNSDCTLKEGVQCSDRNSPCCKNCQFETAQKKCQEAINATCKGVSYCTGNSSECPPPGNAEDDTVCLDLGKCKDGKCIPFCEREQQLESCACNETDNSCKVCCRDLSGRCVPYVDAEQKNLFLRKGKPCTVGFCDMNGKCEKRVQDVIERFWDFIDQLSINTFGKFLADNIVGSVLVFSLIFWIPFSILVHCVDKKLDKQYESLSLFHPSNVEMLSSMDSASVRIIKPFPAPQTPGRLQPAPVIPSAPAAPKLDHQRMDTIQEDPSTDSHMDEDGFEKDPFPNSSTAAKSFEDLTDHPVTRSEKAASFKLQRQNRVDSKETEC
Chain of Stromelysin-1 (P08254 whole entry): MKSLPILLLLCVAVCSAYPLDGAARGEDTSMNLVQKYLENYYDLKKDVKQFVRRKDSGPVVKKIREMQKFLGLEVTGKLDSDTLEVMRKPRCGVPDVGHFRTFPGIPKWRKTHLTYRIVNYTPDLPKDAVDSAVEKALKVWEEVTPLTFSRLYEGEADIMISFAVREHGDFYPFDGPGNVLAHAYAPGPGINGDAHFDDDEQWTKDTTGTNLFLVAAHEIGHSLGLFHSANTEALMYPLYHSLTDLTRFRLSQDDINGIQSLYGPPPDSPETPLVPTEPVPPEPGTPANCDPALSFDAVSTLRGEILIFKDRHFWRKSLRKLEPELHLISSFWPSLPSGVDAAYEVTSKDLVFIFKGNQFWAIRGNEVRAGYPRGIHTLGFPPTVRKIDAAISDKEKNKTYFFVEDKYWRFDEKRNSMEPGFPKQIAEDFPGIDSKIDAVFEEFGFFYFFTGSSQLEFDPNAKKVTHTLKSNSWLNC

| Structure (SMILES) | Ki [1] [nM] | Ki (Interstitial collagenase) [nM] | Ki [3] [nM] | Ki (Stromelysin-1) [nM] | Ki [2] [nM] |
| --- | --- | --- | --- | --- | --- |
| COc1ccc(S(=O)(=O)N2C[C@H](O)[C@@H](O)[C@H](O)[C@@H]2C(=O)NO)cc1 | 12 | 25 |  |  |  |
| O=C(NO)[C@H]1[C@@H](O)[C@H](O)[C@@H](O)CN1S(=O)(=O)c1ccc(OC2CCCCC2)cc1 | 67 | 100 |  | 1.8 | 0.93 |
| COc1ccc(S(=O)(=O)N2C[C@H](O)[C@H](O)[C@@H](O)[C@@H]2C(=O)NO)cc1 | 510 | > 850 |  |  |  |
| O=C(NO)[C@H]1[C@@H](O)[C@H](O)[C@@H](O)CN1S(=O)(=O)c1ccc(OCc2ccccc2)cc1 | 1.6 | 850 |  | 2.6 | 6.1 |

Now from value to molecule, other results behind:

| Ki [1] [nM] | Ki (Interstitial collagenase) [nM] | Ki [3] [nM] | Structure (SMILES) | Ki (Stromelysin-1) [nM] | Ki [2] [nM] |
| --- | --- | --- | --- | --- | --- |
| 340 | 450 |  | COc1ccc(S(=O)(=O)N2C[C@@H](O)[C@H](O)[C@@H](O)[C@@H]2C(=O)NO)cc1 |  |  |
| 71 |  |  | COc1ccc(S(=O)(=O)N2C[C@H](O)[C@@H](O)[C@@H](O)[C@@H]2C(=O)NO)cc1 |  |  |
| 8.7 | > 850 |  | CCOCCOc1ccc(S(=O)(=O)N2C[C@H](O)[C@@H](O)[C@H](O)[C@@H]2C(=O)NO)cc1 | 42 | 64 |
|  | 8 | 2.3 | O=C(NO)[C@H]1[C@@H](O)[C@H](O)[C@@H](O)CN1S(=O)(=O)c1ccc(Oc2ccccc2)cc1 | 0.51 |  |
